biological target: VHL (co-expressed with Elongin B and Elongin C) (Homo sapiens (Human), UniProt P40337); test: Measurement of intermolecular interactions using surface plasmon resonance (Biacore T200), Kd value for VHL; format: binding; conditions: not given
From the text: As the device, Biacore T200 (manufactured by GE Healthcare) was used. VHL was obtained by co-expressing Elongin B and Elongin C with a Twin-Strep-tag added to the N-terminus. As the sensor chip, Sensor chip CM5 (manufactured by GE Healthcare) was used. First, Strep-Tactin XT (manufactured by GE Healthcare) was immobilized on the sensor chip by amine coupling. Thereafter, VHL was immobilized using the affinity of Strep-Tactin XT and Twin-Strep-tag, and VHL was further immobilized on the sensor chip by amine coupling.
As the running buffer, a mixed solution of 20 mM HEPES pH 7.5, 150 mM NaCl, 1 mM TCEP, 0.005% Tween 20, and 2% DMSO was used. […] The Contact time and the Dissociation time were determined according to the properties of the compounds. For many compounds, 60 seconds and 120 seconds were respectively used.

Sequence of VHL (co-expressed with Elongin B and Elongin C) (P40337 whole entry, looked up): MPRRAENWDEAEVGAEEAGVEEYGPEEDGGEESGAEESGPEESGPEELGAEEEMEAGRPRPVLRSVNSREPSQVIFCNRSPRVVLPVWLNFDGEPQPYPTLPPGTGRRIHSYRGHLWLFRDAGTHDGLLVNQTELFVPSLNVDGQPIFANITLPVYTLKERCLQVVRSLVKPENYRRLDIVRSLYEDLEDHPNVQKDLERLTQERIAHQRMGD
Sequence of VHL (co-expressed with Elongin B and Elongin C) (Q15370 whole entry partner, looked up): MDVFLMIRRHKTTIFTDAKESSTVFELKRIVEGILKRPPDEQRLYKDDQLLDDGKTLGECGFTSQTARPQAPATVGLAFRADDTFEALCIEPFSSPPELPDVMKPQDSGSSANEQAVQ
Sequence of VHL (co-expressed with Elongin B and Elongin C) (Q15369 whole entry partner, looked up): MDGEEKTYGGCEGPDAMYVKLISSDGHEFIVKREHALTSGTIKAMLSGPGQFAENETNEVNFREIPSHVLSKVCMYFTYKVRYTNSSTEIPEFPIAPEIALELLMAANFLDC

Row | SMILES | Kd [µM]
1 | COc1cc(C(C(=O)N2C[C@H](O)C[C@H]2c2nc(C(=O)N3CCC(Nc4ccccc4)CC3)c[nH]2)C(C)C)on1 (stereo partly drawn) [Example 150, 1-[(2S,4R)-2-[4-(4-anilinopiperidine-1-carbonyl)-1H-imidazol-2-yl]-4-hydroxypyrrolidin-1-yl]-2-(3-methoxyisoxazol-5-yl)-3-methylbutan-1-one] | 1 to 10

same assay, conditions: SPR, immobilized VHL, 25° C.; read-out: Kd

Row | SMILES | Kd [µM]
2 | CNC(=O)c1nc([C@@H]2C[C@@H](O)CN2C(=O)C(c2cc(OC)no2)C(C)C)[nH]c1-c1ccc(OC)cc1 (stereo partly drawn) [Example 75, 2-[(2S,4R)-4-hydroxy-1-[2-(3-methoxy-1,2-oxazol-5-yl)-3-methylbutanoyl]pyrrolidin-2-yl]-5-(4-methoxyphenyl)-N-methyl-1H-imidazole-4-carboxamide] | 1 to 10
3 | CC(=O)N[C@H](C(=O)N1C[C@H](O)C[C@H]1c1nc(C(=O)N(C)Cc2cccc(Cl)c2)c[nH]1)C(C)(C)C [Example 15, 2-[(2S,4R)-1-[(2S)-2-acetamido-3,3-dimethylbutanoyl]-4-hydroxypyrrolidin-2-yl]-N-[(3-chlorophenyl)methyl]-N-methyl-1H-imidazole-4-carboxamide] | 1 to 10
4 | CNC(=O)c1cccc(-c2cnc([C@@H]3C[C@@H](O)CN3C(=O)C(c3cc(OC)no3)C(C)C)[nH]2)c1 (stereo partly drawn) [Example 80, 3-[2-[(2S,4R)-4-hydroxy-1-[2-(3-methoxy-1,2-oxazol-5-yl)-3-methylbutanoyl]pyrrolidin-2-yl]-1H-imidazol-5-yl]-N-methylbenzamide] | 1 to 10
5 | COc1cc(C(C(=O)N2C[C@H](O)C[C@H]2c2ncc[nH]2)C(C)C)on1 (stereo partly drawn) [Example 112, 1-[(2S,4R)-4-hydroxy-2-(1H-imidazol-2-yl)pyrrolidin-1-yl]-2-(3-methoxyisoxazol-5-yl)-3-methylbutan-1-one] | 1 to 10
6 | CC(=O)N[C@H](C(=O)N1C[C@H](O)C[C@H]1c1ncc(Cc2ccc(Br)cc2)[nH]1)C(C)(C)C [Example 81, N-[(2S)-1-[(2S,4R)-2-[5-[(4-bromophenyl)methyl]-1H-imidazol-2-yl]-4-hydroxypyrrolidin-1-yl]-3,3-dimethyl-1-oxobutan-2-yl]acetamide] | 1 to 10
7 | CC(=O)N[C@H](C(=O)N1C[C@H](O)C[C@H]1c1nc(C(=O)N(C)Cc2cccc(C(F)(F)F)c2)c[nH]1)C(C)(C)C [Example 21, 2-[(2S,4R)-1-[(2S)-2-acetamido-3,3-dimethylbutanoyl]-4-hydroxypyrrolidin-2-yl]-N-methyl-N-[[3-(trifluoromethyl)phenyl]methyl]-1H-imidazole-4-carboxamide] | 1 to 10
8 | CCCc1nc(C(C(=O)N2C[C@H](O)C[C@H]2c2ncc[nH]2)C(C)C)no1 (stereo partly drawn) [Example 161, 1-[(2S,4R)-4-hydroxy-2-(1H-imidazol-2-yl)pyrrolidin-1-yl]-3-methyl-2-(5-propyl-1,2,4-oxadiazol-3-yl)butan-1-one] | 10 to 50
9 | CC(=O)N[C@H](C(=O)N1C[C@H](O)C[C@H]1c1ncc(-c2ccc(-c3scnc3C)cc2)[nH]1)C(C)(C)C [Example 89, N-[(2S)-1-[(2S,4R)-4-hydroxy-2-[5-[4-(4-methyl-1,3-thiazol-5-yl)phenyl]-1H-imidazol-2-yl]pyrrolidin-1-yl]-3,3-dimethyl-1-oxobutan-2-yl]acetamide] | 1 to 10
10 | COc1cc(C(C(=O)N2C[C@H](O)C[C@H]2c2nccn2Cc2cccc(Oc3ccccc3)c2)C(C)C)on1 (stereo partly drawn) [Example 65, 1-[(2S,4R)-4-hydroxy-2-[1-[(3-phenoxyphenyl)methyl]imidazol-2-yl]pyrrolidin-1-yl]-2-(3-methoxy-1,2-oxazol-5-yl)-3-methylbutan-1-one] | 10 to 50
11 | CC(=O)N[C@H](C(=O)N1C[C@H](O)C[C@H]1c1ncc(-c2cccc(-c3scnc3C)c2)[nH]1)C(C)(C)C [Example 6, N-[(2S)-1-[(2S,4R)-4-hydroxy-2-[5-[3-(4-methyl-1,3-thiazol-5-yl)phenyl]-1H-imidazol-2-yl]pyrrolidin-1-yl]-3,3-dimethyl-1-oxobutan-2-yl]acetamide] | 1 to 10
12 | COc1cc(C(C(=O)N2C[C@H](O)C[C@H]2c2nc(C(=O)N3CCN(c4ccccc4)CC3)c[nH]2)C(C)C)on1 (stereo partly drawn) [Example 140, 1-[(2S,4R)-4-hydroxy-2-[4-(4-phenylpiperazine-1-carbonyl)-1H-imidazol-2-yl]pyrrolidin-1-yl]-2-(3-methoxyisoxazol-5-yl)-3-methylbutan-1-one] | 1 to 10
13 | CC(=O)N[C@H](C(=O)N1C[C@H](O)C[C@H]1c1nc(C(=O)N(C)Cc2ccncc2)c[nH]1)C(C)(C)C [Example 49, 2-[(2S,4R)-1-[(2S)-2-acetamido-3,3-dimethylbutanoyl]-4-hydroxypyrrolidin-2-yl]-N-methyl-N-(pyridin-4-ylmethyl)-1H-imidazole-4-carboxamide] | 1 to 10
14 | COc1cc(C(C(=O)N2C[C@H](O)C[C@H]2c2nc(C(=O)N3CCC(Oc4ccccc4)CC3)c[nH]2)C(C)C)on1 (stereo partly drawn) [Example 1, 1-[(2S,4R)-4-hydroxy-2-[4-(4-phenoxypiperidine-1-carbonyl)-1H-imidazol-2-yl]pyrrolidin-1-yl]-2-(3-methoxy-1,2-oxazol-5-yl)-3-methylbutan-1-one] | 1 to 10
15 | COc1ccc(Cc2cnc([C@@H]3C[C@@H](O)CN3C(=O)C(c3cc(OC)no3)C(C)C)[nH]2)cc1 (stereo partly drawn) [Example 62, 1-[(2S,4R)-4-hydroxy-2-[5-[(4-methoxyphenyl)methyl]-1H-imidazol-2-yl]pyrrolidin-1-yl]-2-(3-methoxy-1,2-oxazol-5-yl)-3-methylbutan-1-one] | 1 to 10
16 | COc1cc(C(C(=O)N2C[C@H](O)C[C@H]2c2nc(C(=O)N(C)Cc3ccc(-c4scnc4C)cc3)c[nH]2)C(C)C)on1 (stereo partly drawn) [Example 54, 2-[(2S,4R)-4-hydroxy-1-[2-(3-methoxy-1,2-oxazol-5-yl)-3-methylbutanoyl]pyrrolidin-2-yl]-N-methyl-N-[[4-(4-methyl-1,3-thiazol-5-yl)phenyl]methyl]-1H-imidazole-4-carboxamide] | < 1
17 | COc1cc(C(C(=O)N2C[C@H](O)C[C@H]2c2nc(C(=O)N3CCC(c4ccccc4)C3)c[nH]2)C(C)C)on1 (stereo partly drawn) [Example 111, 1-[(2S,4R)-4-hydroxy-2-[4-(3-phenylpyrrolidine-1-carbonyl)-1H-imidazol-2-yl]pyrrolidin-1-yl]-2-(3-methoxyisoxazol-5-yl)-3-methylbutan-1-one] | < 1
18 | COc1cc(C(C(=O)N2C[C@H](O)C[C@H]2c2nccn2Cc2ccccc2OCc2ccccc2)C(C)C)on1 (stereo partly drawn) [Example 66, 1-[(2S,4R)-4-hydroxy-2-[1-[(2-phenylmethoxyphenyl)methyl]imidazol-2-yl]pyrrolidin-1-yl]-2-(3-methoxy-1,2-oxazol-5-yl)-3-methylbutan-1-one] | 10 to 50
19 | COc1cc(C(C(=O)N2C[C@H](O)C[C@H]2c2nc(C(=O)N(C)CCNc3ccccc3)c[nH]2)C(C)C)on1 (stereo partly drawn) [Example 158, N-(2-anilinoethyl)-2-[(2S,4R)-4-hydroxy-1-[2-(3-methoxyisoxazol-5-yl)-3-methylbutanoyl]pyrrolidin-2-yl]-N-methyl-1H-imidazole-4-carboxamide] | < 1
20 | COc1cccc(-c2cnc([C@@H]3C[C@@H](O)CN3C(=O)C(c3cc(OC)no3)C(C)C)[nH]2)c1 (stereo partly drawn) [Example 61, 1-[(2S,4R)-4-hydroxy-2-[5-(3-methoxyphenyl)-1H-imidazol-2-yl]pyrrolidin-1-yl]-2-(3-methoxy-1,2-oxazol-5-yl)-3-methylbutan-1-one] | 1 to 10

From patent US20230312542A1, “HYDROXYPYRROLIDINE DERIVATIVE AND MEDICINAL APPLICATION THEREOF” (MITSUBISHI TANABE PHARMA CORPORATION, priority 2020, published 2023)
